Results reported in the NIST ThermoML archive (doi:10.1016/j.jct.2011.05.028).
Where “and” joins values, the source holds several entries; their conditions need not be identical. Equal values may be shown once.

Details: Liquid, Transpiration method

[N-]=[N+]=NCSc1ccccc1 [azidomethyl phenyl sulfide]
Details	vapor or sublimation pressure [kPa]
299.6 K	0.00448
303.5 K	0.0064
307.3 K	0.00918
310.3 K	0.01158
313.3 K	0.01502
316.2 K	0.01866
319.2 K	0.02463
324.2 K	0.03511

[N-]=[N+]=NC1CCCC1 [cyclopentyl azide]
Details	vapor or sublimation pressure
275.5 K	0.3701 kPa
279.2 K	0.4454 kPa
281.3 K	0.48 kPa
283.2 K	0.5664 kPa
285.3 K	0.6268 kPa
287 K	0.722 kPa
288.7 K	0.7419 kPa
291.1 K	0.8591 kPa
293 K	0.9879 kPa and 0.9833 kPa
295.1 K	1.102 kPa
295.8 K	1.1 kPa
297.2 K	1.342 kPa
298.5 K	1.418 kPa
299.1 K	1.45 kPa
300.8 K	1.466 kPa
301.1 K	1.615 kPa
303.1 K	1.88 kPa
303.3 K	1.899 kPa
305.8 K	1.953 kPa
306.1 K	2.066 kPa
308.2 K	2.239 kPa
310.7 K	2.494 kPa
313.3 K	2.898 kPa
317.9 K	3.913 kPa
323.1 K	4.896 kPa
327.7 K	5.951 kPa
333.4 K	7.854 kPa

CC(=O)OC1CCCC1 [cyclopentyl ethanoate]
Details	vapor or sublimation pressure [kPa]
274.1 K	0.0795
276.1 K	0.0894
278.2 K	0.1067
281.3 K	0.1295
283.2 K	0.1597
286.3 K	0.1983
288.4 K	0.2248
291.2 K	0.278
293.2 K	0.3029
296.4 K	0.4022
298.2 K	0.4443
303.2 K	0.6114
308.4 K	0.8519

[N-]=[N+]=NC1CCCCC1 [azidocyclohexane]
Details	vapor or sublimation pressure [kPa]
279.6 K	0.0856
281.6 K	0.1002
283.4 K	0.1159
285.3 K	0.1366
286.6 K	0.1432
287.2 K	0.1571
288.9 K	0.1754
290.2 K	0.1885
291.9 K	0.2153
293.2 K	0.231
295.5 K	0.2749
297.1 K	0.3013
298.3 K	0.3332
300.1 K	0.3875
301.3 K	0.3917
303.1 K	0.4574

CCOCCN=[N+]=[N-] [(azidoethoxy)ethane]
Details	vapor or sublimation pressure [kPa]
274.1 K	0.2423
275.7 K	0.2804
277.1 K	0.3181
277.9 K	0.3191
278.7 K	0.3325
279.4 K	0.3333
280.2 K	0.3892
281.5 K	0.4113
282.4 K	0.4364
283.2 K	0.4705
284.8 K	0.5331
286.2 K	0.5994
287.8 K	0.6765
289.2 K	0.7246
290.7 K	0.7842
292.2 K	0.8444
292.3 K	0.8535
293.7 K	0.9715
295.2 K	1.061
296.7 K	1.173
298.2 K	1.313
300.7 K	1.55

[N-]=[N+]=NCCO [2-azidoethanol]
Details	vapor or sublimation pressure [kPa]
284.6 K	0.021
287.3 K	0.0267
288.8 K	0.0298
291.8 K	0.0398
294.8 K	0.052
297.7 K	0.0664
300.7 K	0.088
303.6 K	0.1076
306.6 K	0.1398
309 K	0.1676
309.6 K	0.1718
312 K	0.2073
312.6 K	0.2168
316 K	0.2782
316.1 K	0.2882

CCOC(=O)CN=[N+]=[N-] [ethyl azidoacetate]
Details	vapor or sublimation pressure [kPa]
301.4 K	0.1784
304.8 K	0.2378
308.3 K	0.3083
314.3 K	0.4549
320.2 K	0.6452
323.2 K	0.7874
326.2 K	0.9687
332.2 K	1.38
338.1 K	1.929
341.1 K	2.397
344.3 K	2.714
